Results on one substance are retold here after patent US20240115672A1, “TREATMENT OF AN IOP CONDITION” (THE RESEARCH FOUNDATION FOR THE STATE UNIVERSITY OF NEW YORK, priority 2021, published 2024).

Assay [1] has as its system Mmp-2, Mmp-9, Mmp-13 mRNA in angle ring tissues. In words: Mmp expression in TA and protein treated C57BL/6J eyes (Example 13). The format is in vivo, mouse. The note with it: TA + protein; compared to BSA treated controls; p<0.0001.
The subject of assay [2] is sheep of the Coriedale breed. In words: IOP in prednisolone-treated sheep after tPA injection into the anterior chamber (Example 9). In kind it is in vivo. Particulars: 0.0001 μg into the AC; IOP 23.0 mm Hg at 6:00 and 30:00 hrs after injection. As to the method:
Methods. Lyophilized IPA, obtained as Acetilyse® from Boehringer Ingelheim S.A. (Buenos Aires) containing arginine. was used. Five sheep of the Coriedale breed were selected. Initially all eyes received instillation of 1% prednisolone 3 times/day for 10 days to elevate their IOP from 10 mm Hg to about 23 mm Hg. Then, 0.0001 μg was injected into one of the eyes and its effect was followed for up to 55:00 hrs while the instillation of prednisolone continued in both eyes. The same protocol was implemented for the 0.001 and 0.01 μg amounts (after extended washout) in the contra lateral eyes. Arginine, which is associated with 0.01 ug tPA, was injected alone and had no effect.

The test system of assay [3] is Mmp-9KO mice. Briefly: Outflow facility in protein treated Mmp-9KO mouse eyes (Example 16). In kind it is in vivo. The note with it: Mmp-9KO eyes, intravitreal; p>0.05 ANOVA. The text has this:
Animals: 8- to 12-week-old female mice were used for this study. The animals were housed and bred at the State University of New York (SUNY) Downstate Health Sciences University Division of Comparative Medicine (Brooklyn. NY) under a 12-hour light/12-hour dark cycle and food ad libitum. C57BL/6J mice were obtained from The Jackson Laboratories (Bar Harbor, ME, USA). A PlatKO mouse colony was established from animals (stock No. 002508) obtained from The Jackson Laboratories. These animals are on a C57BL/61 background (www.jax.org/strain/002508). AnMmp-9KO mouse colony was established from animals (stock No. 007084) obtained from The Jackson Laboratories. These animals are on a mixed background but have been bred into the C57BL/6J background for five generations (www.jax.org/strain/007084). […]
Outflow facility determination: Mouse eyes were enucleated immediately after euthanasia. Outflow facility was determined using a constant pressure method, as previously described. […] Flow was constantly measured via a microfluidic flow sensor (0.07-1.5 uL/min, MFS1; Elveflow, Paris, France). […] Any eyes that developed visible leaks during outflow facility determination, or that had pressure-flow correlations with R^2<0.9, were excluded from analysis but were used for RNA quantification.

Assay [4] deals with Mmp-2, Mmp-9, Mmp-13 and Plat mRNA. In words: Mmp and Plat expression in protein treated C57BL/6J eyes without steroids (Example 15). The format is in vivo, mouse. Particulars: non-steroid treated C57BL/6 eyes; group means versus BSA; p>0.05.

In the case of “tPA: recombinant human tissue plasminogen activator (ACTILYSE; Boehringer Ingelheim), enzymatically active”, in assay [1], the Mmp-2 expression result is “significant upregulation”. The “effect on IOP” value in assay [2] is on record as “no effect”. In assay [3], the “effect on outflow facility” value was “did not increase outflow facility”. The “gene expression changes in Mmp-2, Mmp-9, and Mmp-13” value in assay [4] was “not significantly different”.
